Experiment: gradient 5% acetonitrile 3 min, to 50% in 2 min, to 85% in 15 min, held 3 min, 100 µL/min
Conditions: column: Zorbax Extend-C18 2.1 x 50 mm; eluents: water / acetonitrile, 0.1% formic acid
How it was run: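 Pure standards were analyzed in mixtures of ~100 molecules using HPLC coupled to a quadrupole time-of-flight mass spectrometer, in both positive and negative ionization mode. Separation used a Zorbax Extend-C18 column (2.1 × 50 mm, 1.8 μm) at 100 μL/min, with water and acetonitrile each containing 0.1% formic acid. Dead and dwell volumes were 40 μL and 900 μL, and data were collected over 3 months. Retention time was read from computationally picked adduct peaks, each inspected manually.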

Row | Compound | RP-LC retention time [s]
1 | Cc1cc(N2CCN(S(=O)(=O)c3ccc(F)cc3F)CC2)nc(NC2CCCCC2)n1 | 805
2 | Cc1noc([C@@H]2CN(Cc3ccc(OC(F)(F)F)cc3)C[C@H]2CO)n1 | 643
3 | Cc1nc(Nc2ccc(F)cn2)sc1C(=O)N1CCC2(CC1)OCCO2 | 686
4 | Cc1cc(S(=O)(=O)N2[C@H]3CC[C@@H]2c2cnc(-c4ccccc4)nc2C3)ccc1F | 1090
5 | O=C(c1cccc(Br)c1)N1CCN(c2cc(-c3cccs3)[nH]n2)CC1 | 837
6 | Cc1cccc(N(C)C(=O)C2CCCN2S(=O)(=O)c2cc3c(cc2C)NC(=O)CO3)c1 (centres undefined) | 776
7 | Cc1cccc(OCc2nc(-c3cccc(-c4csc(C5CC5)n4)c3)no2)c1 | 1430
8 | CCOc1ccc(-c2nnc(SCC(N)=O)o2)cc1 | 682
9 | Cc1ccc(N2CCN(C(=O)c3csc(C(=O)NC4CC4)n3)CC2)cc1 | 800
10 | CNC(=O)[C@@H]1CN(S(=O)(=O)c2ccc(Cl)s2)C[C@H]1c1nc(C)no1 | 758
11 | Cc1nnc([C@@H]2CC(F)(F)CN2C(=O)COc2ccc(Cl)cc2)o1 | 779
12 | COCC(=O)NC1CCC12CCN(C(=O)CC1CCCC1)CC2 (centres undefined) | 722
13 | COc1cccc(CNC(=O)C2(C)CCCN(C(=O)Nc3cc(Cl)c(OC)cc3OC)C2)c1 (centres undefined) | 900
14 | CCC(=O)N(C1CCOCC1)C1CCN(S(=O)(=O)c2ccc(CC)cc2)CC1 | 908
15 | O=C(NC1CCN(c2cc(-c3cccs3)[nH]n2)C1)c1ccccc1 (centres undefined) | 695
16 | Cc1ccn2cc(C(=O)NCCN(C)C3CCCCC3)nc2c1 | 572
17 | Cc1nc2c(c(C)c1CCC(=O)NCC1CCN(CC(C)C)C1)c(=O)n(C)c(=O)n2C (centres undefined) | 610
18 | COc1ccc(C2Cn3nnc(-c4nc(-c5ccc(F)cc5)no4)c3CO2)cc1 (centres undefined) | 1130
19 | CC(=O)N1CCC(c2nc(-c3ccc4oc(-c5ccccc5)nc4c3)no2)CC1 | 987
20 | COc1cc(CCC(=O)Nc2c(C(=O)N3CCN(c4ccccn4)CC3)oc3ccccc23)on1 | 642

Row | Compound | RP-LC retention time [s]
21 | Cc1nc(-c2csc(S(=O)(=O)N3CCC(C(=O)NC4CCCCCCC4)CC3)c2)no1 | 995
22 | O=C(Nc1ccccc1)C1CCc2nc(N3CCCCC3)ncc2C1 (centres undefined) | 745
23 | CCN1CCN(c2nc(F)c3c(c2F)S(=O)(=O)CCN3Cc2ccccc2)CC1 | 682
24 | CCOC(=O)CNC(=O)NC12CC3CC(CC(C3)C1)C2 | 802
25 | CC(=O)N1CCC2(CC1)C(=O)N(C)c1ccccc12 | 665
26 | O=C(CCSc1ccccc1)Nc1cccc2ccc(-n3ccnc3)nc12 | 648
27 | COc1ccccc1-c1noc(CCn2nc(-c3ccc(F)cc3)ccc2=O)n1 | 863
28 | Fc1ccc(OCc2nnc3sc(Cc4ccc5c(c4)OCCO5)nn23)cc1 | 913
29 | Cn1nc(C2CCN(S(=O)(=O)c3cc(F)cc(F)c3)CC2)n(C2CCCC2)c1=O | 893
30 | Cn1c(=O)c(N2CCCC(C(=O)NCCCN3CCC(N4CCCCC4)CC3)C2)nc2cccnc21 (centres undefined) | 568
31 | CCCOc1cccc2c1CCN(Cc1ccc(F)cc1)C2=O | 1040
32 | COc1ncccc1CNS(=O)(=O)c1ccccc1 | 757
33 | Cc1ccccc1-c1noc(CCn2nc(-c3ccccc3)ccc2=O)n1 | 1000
34 | O=C(NC1CCN(c2cc(-c3ccccc3)[nH]n2)CC1)c1ccoc1 | 676
35 | Cc1nc(-c2csc(S(=O)(=O)N3CCC(C(=O)Nc4cccc(Cl)c4)CC3)c2)no1 | 1000
36 | Ic1ccc(N2CCN(Cc3c[nH]c4ncccc34)CC2)cc1 | 727
37 | Cc1nc(N2CCOCC2)c2c(C(=O)NCC3CCN(Cc4ccccc4Cl)CC3)c(C)oc2n1 | 613
38 | CC(C)(C)c1ccc(NS(=O)(=O)c2ccc(N)cc2)cc1 | 971
39 | O=C(Cn1nc2c(N3CCCCCC3)nccn2c1=O)Nc1cccc(Cl)c1 | 763
40 | CC(C)CN1Cc2ccccc2-n2ccnc2C12CCN(C(=O)c1ccccc1F)CC2 | 650

Row | Compound | RP-LC retention time [s]
41 | CCC(=O)N1CCc2c(C(=O)NC3CCCCC3)cccc21 | 831
42 | O=C(NC1CCCC1)C1CCN(c2nc3ccc(-c4cccnc4)nc3s2)CC1 | 654
43 | CCOC(=O)c1c(C)[nH]c(C(=O)N2CCCC(C(=O)NCCCN3CCN(CC)CC3)C2)c1C (centres undefined) | 579
44 | Cn1cccc(C(=O)N2CCC3(CC2)OCCN3S(=O)(=O)c2ccccc2)c1=O | 616
45 | Cn1c(=O)c(SCC(=O)NCCN2CCCCC2)nc2ccccc21 | 594
46 | Cc1ccccc1-c1cc(C(=O)N2CCC(NC(=O)C3CCC(C)CC3)CC2)[nH]n1 (centres undefined) | 811
47 | CO[C@H]1C(=O)N(C2CCN(S(=O)(=O)c3ccc4c(c3)CCC4)CC2)[C@H]1c1ccncc1 | 704
48 | O=C(Nc1cccn2ncnc12)c1ccccc1C(F)(F)F | 765
49 | COC1CCOC2(CCN(C(=O)Nc3ccc4c(c3)OCCO4)CC2)C1 (centres undefined) | 690
50 | O=C(Cn1cc(S(=O)(=O)c2ccccc2)c2ccccc21)NCc1ccc2c(c1)OCO2 | 829
51 | O=C([C@H]1C[C@@H](F)CN1C(=O)Nc1cccc(Cl)c1)N1CCOCC1 | 653
52 | Cc1cc2c(cc1S(=O)(=O)N1CCCC1C(=O)NC1CCCC1)OCC(=O)N2 (centres undefined) | 718
53 | COc1ccc(S(=O)(=O)Cc2nc(-c3cccc(C(F)(F)F)c3)no2)cc1 | 1060
54 | CCNS(=O)(=O)c1cccnc1Nc1ccc(F)c(Cl)c1 | 1040
55 | COc1ccccc1Cc1nc(-c2ccccc2)nn(C2OC(COC(C)=O)C(OC(C)=O)C(OC(C)=O)C2OC(C)=O)c1=S (centres undefined) | 1190
56 | Brc1ccc(-c2nc(-c3ccc4nncn4c3)no2)cc1 | 913
57 | O=C1CC(c2noc(-c3ccc4c(c3)OCO4)n2)CN1c1ccc(F)cc1 (centres undefined) | 1200
58 | CS(=O)(=O)N1C[C@H]2CCN(Cc3c(F)cccc3Cl)C[C@H]21 | 571
59 | COc1ccc(S(=O)(=O)N2CCN(c3cc(-n4ccnc4)nc(C)n3)CC2)cc1Cl | 664

Continued, values first:

Row | RP-LC retention time [s] | Compound
60 | 605 | CCc1cccc(NC(=O)c2cc3n(n2)CC(C)(C(=O)NC2CCCC2)N(CC)C3=O)c1 (centres undefined)
61 | 824 | CCCN1C(=O)c2c(C(=O)NCCC(C)C)ncn2CC1(C)C(=O)NCc1ccc(F)cc1 (centres undefined)
62 | 1310 | Cc1oc(-c2ccc(Cl)cc2)nc1Cn1nnc(C(=O)Nc2cc(F)ccc2F)c1C
63 | 962 | COc1ccc(-c2csc(NC(=O)c3ccc(C)o3)n2)cc1
64 | 1160 | O=C(Nc1nc(-c2ccc3ccccc3c2)cs1)c1ccc2c(c1)OCO2
65 | 669 | CC(=O)Nc1ccc2c(c1)Sc1ncccc1C(=O)N2C(C)C
66 | 685 | Cc1oc(-c2ccc(C(=O)NCCCN3CCOCC3)cc2)nc1CSc1ccccc1
67 | 785 | Cc1ccc(-c2nc3ncccn3c2NCc2ccccc2)cc1C
68 | 1150 | CCCn1nc(-c2nc(-c3cccc(Cl)c3)no2)ccc1=O
69 | 891 | CCc1nn2c(CNC(=O)c3ccccn3)c(-c3ccccc3)nc2s1
70 | 784 | CCc1noc(NC(C)=O)c1-c1ccc(C)c(S(=O)(=O)Nc2ccc3c(c2)OCCO3)c1
71 | 730 | CCCNC(=O)CN1C(=O)CCn2nc(-c3cn(C)c4ccccc34)cc21
72 | 950 | CCOC(=O)c1sc(NC(=O)C2CCCO2)nc1-c1ccccc1 (centres undefined)
73 | 635 | CCOC(=O)c1c(C)[nH]c(C(=O)N2CCC(C(C)C(=O)NCc3ccc(N(C)C)cc3)CC2)c1C (centres undefined)
74 | 930 | Cc1ccc(-c2cn3c(CC(=O)NCC(C)c4ccccc4)csc3n2)cc1C (centres undefined)
75 | 975 | CCN1C(=O)COc2ccc(-c3noc(CNC(=O)C(c4ccccc4)c4ccccc4)n3)cc21
76 | 888 | Cc1cc(C)cc(C(=O)Nc2ccc3c(c2)Sc2ncccc2C(=O)N3C)c1
77 | 919 | Cc1ccc(CNC(=O)c2c(C)oc3ccn(C)c(=O)c23)cc1
78 | 689 | CCCn1cc(-c2ccncc2)cc1C(=O)NCc1ccccc1C
79 | 763 | Cc1nc2c(NC(=O)c3ccccn3)cccn2n1
80 | 692 | Cc1ccc(-c2cn3ccccc3n2)cc1NS(=O)(=O)c1ccc(Cl)cc1
81 | 1150 | CCCC(=O)N1CCc2c([nH]c3ccccc23)C1c1cccc(OCC)c1 (centres undefined)
82 | 688 | Cc1ccc(N2CCC(NC(=O)NC(C)C)C2=O)cc1 (centres undefined)
83 | 861 | CCOc1ccc(CNC(=O)C2=Cc3cc(OC)ccc3OC2)cc1OC
84 | 792 | COC(=O)c1cccc(NC(=O)NC(C)C(=O)N2CCc3ccccc32)c1 (centres undefined)
85 | 750 | Cc1sc(NC(=O)C(C)C)nc1-c1ccc2c(c1)NC(=O)CO2
86 | 611 | Cc1ccc(-c2cn3c(n2)N(C(=O)c2nc4ncccn4n2)CCC3)cc1
87 | 786 | CCC(C)C(NC(=O)c1ccc(C)cc1C)C(=O)Nc1nc2ccccc2[nH]1 (centres undefined)
88 | 988 | Cn1c(C(=O)Nc2ccc(F)cc2Cl)cc2c(=O)oc3ccccc3c21
89 | 901 | COc1ccc2nc3oc(C(=O)NCCc4ccsc4)cc3cc2c1
